ChEMBL document CHEMBL1949595, “Fluorinated ΔF508-CFTR correctors and potentiators for PET imaging” (Bioorg Med Chem Lett, 2012)

Columns and labels:
[1] = biological target: Cystic fibrosis transmembrane conductance regulator (Homo sapiens, UniProt P13569, F508DEL); assay: Corrector activity at human CFTR delta F508 mutant expressed in rat FRT cells coexpressing fluorescent protein YFP-H148Q/1152L by fluorescence assay; type: cell-based
[2] = Potentiation activity at human CFTR delta F508 mutant-mediated iodine flux expressed in rat FRT cells coexpressing fluorescent protein YFP-H148Q/1152L by fluorescence assay; type: cell-based

Chain of Cystic fibrosis transmembrane conductance regulator (P13569 as listed by the source): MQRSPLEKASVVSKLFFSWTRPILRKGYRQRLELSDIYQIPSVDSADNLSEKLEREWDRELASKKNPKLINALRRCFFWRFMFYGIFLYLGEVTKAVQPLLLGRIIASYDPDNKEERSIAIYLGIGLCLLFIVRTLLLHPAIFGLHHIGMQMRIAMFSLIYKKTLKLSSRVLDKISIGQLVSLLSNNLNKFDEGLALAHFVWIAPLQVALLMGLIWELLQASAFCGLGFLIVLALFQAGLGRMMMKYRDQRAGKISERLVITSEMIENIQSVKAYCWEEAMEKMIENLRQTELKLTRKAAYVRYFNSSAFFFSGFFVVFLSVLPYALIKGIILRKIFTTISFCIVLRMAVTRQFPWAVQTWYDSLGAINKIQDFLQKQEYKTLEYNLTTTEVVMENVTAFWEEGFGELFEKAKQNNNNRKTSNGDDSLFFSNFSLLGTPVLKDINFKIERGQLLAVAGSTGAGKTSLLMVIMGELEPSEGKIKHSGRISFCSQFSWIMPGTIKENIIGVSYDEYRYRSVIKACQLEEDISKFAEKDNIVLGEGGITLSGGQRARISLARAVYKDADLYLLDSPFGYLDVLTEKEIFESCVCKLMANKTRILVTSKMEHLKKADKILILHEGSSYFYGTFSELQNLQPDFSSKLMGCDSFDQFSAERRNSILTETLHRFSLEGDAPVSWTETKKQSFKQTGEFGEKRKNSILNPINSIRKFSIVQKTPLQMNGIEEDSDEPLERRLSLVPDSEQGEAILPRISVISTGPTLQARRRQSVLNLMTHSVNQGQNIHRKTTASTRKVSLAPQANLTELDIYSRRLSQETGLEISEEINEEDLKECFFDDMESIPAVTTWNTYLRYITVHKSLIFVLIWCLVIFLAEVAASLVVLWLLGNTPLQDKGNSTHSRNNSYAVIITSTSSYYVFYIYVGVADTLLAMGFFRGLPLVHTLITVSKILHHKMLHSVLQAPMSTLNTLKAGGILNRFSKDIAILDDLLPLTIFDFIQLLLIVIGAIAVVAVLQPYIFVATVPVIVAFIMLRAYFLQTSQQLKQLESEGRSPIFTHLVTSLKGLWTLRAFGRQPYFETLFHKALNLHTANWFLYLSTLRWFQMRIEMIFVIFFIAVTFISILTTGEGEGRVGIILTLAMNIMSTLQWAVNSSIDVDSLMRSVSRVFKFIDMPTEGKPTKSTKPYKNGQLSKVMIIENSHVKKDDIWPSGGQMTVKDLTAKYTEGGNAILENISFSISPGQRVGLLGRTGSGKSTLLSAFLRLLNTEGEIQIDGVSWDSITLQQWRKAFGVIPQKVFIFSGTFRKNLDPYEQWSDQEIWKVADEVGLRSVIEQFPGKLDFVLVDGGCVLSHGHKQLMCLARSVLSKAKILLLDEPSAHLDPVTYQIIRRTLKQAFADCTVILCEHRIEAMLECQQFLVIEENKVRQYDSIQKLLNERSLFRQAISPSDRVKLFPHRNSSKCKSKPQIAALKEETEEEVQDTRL

Row | EC50 [1] [nM] | EC50 [2] [nM] | Compound
1 |  | 90 | CN(C(=O)Cc1c[nH]c2ccccc12)[C@H](C(=O)Nc1ccc([19F])cc1)c1ccccc1
2 |  | 1100 | CN(C(=O)Cc1c[nH]c2ccccc12)[C@H](C(=O)Nc1ccc(-n2cc(CCC[19F])nn2)cc1)c1ccccc1

The next lines start with the compound.

Row | Compound | EC50 [1] [nM] | EC50 [2] [nM]
3 | Cc1nc(NC(=O)c2ccc([19F])cc2)sc1-c1csc(Nc2cc(N(C)C)ccc2Cl)n1 | 1400 | 
4 | COc1ccc(Cl)cc1Nc1nc(-c2sc(NC(=O)c3ccc([19F])cc3)nc2C)cs1 | 1400 | 
5 | COc1ccc(Cl)cc1Nc1nc(-c2sc(NC(=O)c3ccccc3)nc2C)cs1 | 2300 | 
